Data published in publication PMC10341698, “Identification of Anti-Influenza A Compounds Inhibiting the Viral Non-Structural Protein 1 (NS1) Using a Type I Interferon-Driven Screening Strategy” (International Journal of Molecular Sciences, 2023).

Assays:
NS1 = details: cited from earlier work
[1] = tested on: IFN-β promoter luciferase reporter; format: cell-based, human
in vitro = details: human
Experimental: (§1) Cytotoxic concentration to cause death to 50% of viable cells (CC50) was calculated by neutral red uptake assay (NRU) assay [64]. In brief, 1 × 10^4 A549 cells were seeded in 96-well plates and exposed to different concentrations of cpds 157, 164 (25, 50, 100, 200, and 400 μM) or equivalent volumes of DMSO as a control for 48 h. At the end of the exposure time, cells were washed with phosphate-buffered saline (PBS) before being incubated for 3 h in a medium supplemented with neutral red (50 μg/mL). The medium was washed off rapidly with PBS, and cells were incubated for a further 15′ at R.T. in a mixture of 1% acetic acid and 50% ethanol to extract the dye. Absorbance was then measured at 540 nm using a micro-plate reader (Biorad). Neutral red powder was purchased from Sigma-Aldrich. The percentage of cell death for each compound concentration, compared to the corresponding DMSO amount in untreated controls (y-axis), was plotted against increasing cpd concentrations (x-axis). Data were transformed in log scale [x = log(x)], and a linear regression analysis was used to calculate the CC50 concentration.

PKR mRNA = assay: qRT-PCR of PKR mRNA in infected A549 cells; format: cell-based, human; details: A/PR/8/34(H1N1)-infected A549 cells, 24 h p.i., normalized with GAPDH and HAU
IFN-β mRNA = assay: qRT-PCR of IFN-β mRNA in infected A549 cells; format: cell-based, human; details: A/PR/8/34(H1N1)-infected A549 cells, 24 h p.i., normalized with GAPDH and HAU
A(H1N1)pdm09 NS1 [2] = assay: Confirmation in the IFN-β luciferase system (flash type); format: cell-based, A(H1N1)pdm09 influenza virus; details: HEK 293 cells, 50 μM
RNase L mRNA = assay: qRT-PCR of RNase L mRNA in infected A549 cells; format: cell-based, human; details: A/PR/8/34(H1N1)-infected A549 cells, 24 h p.i., normalized with GAPDH and HAU
A(H1N1)pdm09 NS1 [3] = assay: IFN-β promoter luciferase screening of the diverse library (glow type); format: cell-based, A(H1N1)pdm09 influenza virus; details: HEK 293 cells; for increase of IFN-β promoter stimulation: 50 μM, 42 h treatment, glow luciferase, single experiment
[4] = tested on: influenza virus A/PR/8/34(H1N1); details: A549 cells; for reduction of viral replication: 50 µM, 3 h before infection, MOI 0.1, 24 h p.i., HAU
2′5′ OAS mRNA = assay: qRT-PCR of OAS mRNA in infected A549 cells; format: cell-based, human; details: A/PR/8/34(H1N1)-infected A549 cells, 24 h p.i., normalized with GAPDH and HAU
[5] = tested on: influenza virus A/PR/8/34(H1N1); assay: microbe, parasite or virus in culture; details: unidentified influenza virus, A549, 24 h
A549 cells = details: human, 48 h
Experimental: as §1

SMILES | EC50 (NS1) | non-specific activity on the reporter, alone or with IFN inducer, without NS1 [1] | CC50 at 48 h (in vitro) | fold increase for PKR (PKR mRNA) | fold increase in IFN-β mRNA accumulation (IFN-β mRNA) | restoration of the luciferase signal (A(H1N1)pdm09 NS1 [2]) | fold increase for RNase L (RNase L mRNA) | increase of IFN-β promoter stimulation (A(H1N1)pdm09 NS1 [3]) | therapeutic index (CC50/IC50) [4] | reduction of viral replication [4] | fold increase for 2′5′ OAS (2′5′ OAS mRNA) | IC50 [5] | CC50 (A549 cells) | IFN-β promoter assay with the reference NS1 inhibitor (A(H1N1)pdm09 NS1 [3]; 5 μM)
Nc1ccccc1C(=O)NCCCc1ccccc1 [A22] | ~0.05 µM |  |  |  |  |  |  |  |  |  |  |  |  | 
CCc1ccc(NC(=O)COC(=O)c2ccc3ccccc3n2)cc1 [Compound 157] |  | without showing non-specific activities | > 400 µM | 4.5 fold | 2.7 fold | significant restoration of the luciferase signal | 2.5 fold | at least 50% | > 7.8 | 50% | 2.3 fold | 51.6 µM |  | 
O=C(CSc1nnnn1-c1ccccc1)NCc1ccccc1 [Compound 164] |  | without showing non-specific activities | > 150 µM | 1.7 fold | 3.2 fold | significant restoration of the luciferase signal | 2.3 fold | at least 50% | 3.6 | 60% | 1.7 fold | 46.4 µM | 169 µM | 
O=C(NCCCc1ccccc1)c1ccccc1O [JJ3297, reference compound] | 0.8 µM |  |  |  |  |  |  |  |  |  |  |  |  | specificity of the IFN-β promoter assay was also confirmed
O=C(N/N=C/c1ccc2c(c1)CCC2)c1ccccc1O [NSC125044] | 8 µM |  |  |  |  |  |  |  |  |  |  |  |  | 
